Results as given in PMC7796031, “Studies of Coumarin Derivatives for Constitutive Androstane Receptor (CAR) Activation” (Molecules, 2020).

Experiment: Preliminary pharmacokinetic study, plasma concentration by RP-HPLC-fluorescence
Format: in vivo, C57BL/6 mice
Details: for desired plasma concentration (10 μM) reached: dose 0.5 mg/mouse, desired ~2 μg/mL for scoparone, ~3 μg/mL for 50
Description: S23 Preliminary pharmacokinetic studies of scoparone and 6,7-diprenoxycoumarin
Table S1 Blood concentration of scoparone. mouse Dose given (mg) Body weight (g) Time (min) Cal. Conc. (µg/ml) […]
Table S2 Blood concentration of 6,7-diprenoxycoumarin.
Adopt previous study on fraxetin (unpublished result) , a coumarin compound, RP -HPLC -fluorescence method (excitation 380 nm and emission 480 nm ) was applied on analysis of the concentration of scoparone and 6,7 -diprenoxycoumarin. […]
without interference with endogenous plasma constituents. […]
retention time of approximately 7.51 in mouse plasma.
0.01 to 10.00 µg/ml for scoparone and 0.025 to 6.25 µg/ml for 6,7 -diprenoxycoumarin. The relativ e error and coefficient of variance are all below 15 %. The LOQ were 0.01 and 0.005 µg/ml for scoparone and 6,7 - diprenoxycoumarin. Linearity over the investigated concentration was obtained.
After method validation, C57BL/6 mice were given scoparone (i.p.) or 6,7 -diprenoxycoumarin and plasma […]
In pharmacological assay, the desired scoparone […]
the amount of drug increased to 0.5 mg/mice. Thus, the CAR activating effect may not be seen in vivo, which can account for no blood sugar lowering effects of 6,7-diprenoxycoumarin in vivo.
Acetonitrile HPLC-grade (LiChrosolv® ) were purchased from Sigma-Aldrich Chemie GmbH. Deionized water was purified on a Milli-Q system. Scoparone and 6,7-diprenoxycoumarin were synthesized from our […]
lab and purity was > 95 % from HPLC-UV method.
Instrumentation and Chromatographic Condition
Hitachi L-7100 liquid chromatography system (Hitachi, Japan) comprised a Hitachi D-7000 interface, a Hitachi L-7200 auto sampler, a Hitachi L-7400 UV detector and a Hitachi L-2480 FL detector. The HPLC colum consisted of a Thermo Hypurity® RP-18 column (200 × 4.6 mm, 5 µm) connected to a Hichrom ODS guard column. The isocratic elution was applied for scoparone (ACN-H2O = 3:7) and 6,7-diprenoxycoumarin (ACN-H2O = 7:3). The flow rate was set at 1.0 ml/min. The detection fluorescence was set at excitation 380 nm and emission 480 nm. A volume of 20 µL of sample was subjected to HPLC for […]
Animals and Sample Preparation
Eight-week old male or female C57/BL6 mice were acquired from BioLASCO Taiwan Co., Ltd. Experimental animals were allowed to acclimate to the controlled photoperiod (a cycle of 12-hr light/ 12-hr dark), humidity (40-60% relative humidity) and temperature (22 ± 2 °C) with ad libitum supply of standard chow diets and drinking water for one week prior to the experimental treatment in accordance with the Guide for the Care and Use of Laboratory Animals (Institute of Laboratory Animal Resources Commission on Life Sciences, 2011). Acclimated animals were randomly separated into two groups: scoparone-treated or 6,7-diprenoxycoumarin-treated. Mice were administered indicated dose i.p. All mice were anesthetized with Zoetil (10 mg/ml, 0.05 ml/10 gmbw, i.p.) before blood sampling. The blood samples (approximately 300 µL) were […]
centrifuging at 10,000 rpm for 10 min, the plasma samples were obtained. The plasma (50 µL) was mixed with 150 µL ACN, vortexed, and centrifuged for […], 10 mins and at 4 °C. The supernatant was obtained and 20 µL of sample was subjected to HPLC analysis.
Institute of Laboratory Animal Resources Commission on Life Sciences, National Research Council. In Guide for the Care and Use of Laboratory Animals, 8th ed.; National Academy Press: Washington, DC, 2011.

| Blood concentration, Cal. Conc. (Table S1, Study 1 mouse 1, dose given 0.2 mg i.p., 10 min) [ng/mL] | Blood concentration, Cal. Conc. (Table S1, Study 1 mouse 2, dose given 0.2 mg i.p., 60 min) [ng/mL] | Blood concentration, Cal. Conc. (Table S1, Study 1 mouse 3, dose given 0.2 mg i.p., 315 min) [ng/mL] | Blood concentration, Cal. Conc. (Table S1, Study 2 mouse 3, dose given 0.5 mg i.p., 320 min) [ng/mL] | desired plasma concentration (10 μM) reached | Blood concentration, Cal. Conc. (Table S2, Study 1 mouse 1, dose given 0.36 mg i.p., 10 min) [ng/mL] | Blood concentration, Cal. Conc. (Table S2, Study 1 mouse 2, dose given 0.36 mg i.p., 60 min) [ng/mL] | Blood concentration, Cal. Conc. (Table S2, Study 1 mouse 3, dose given 0.36 mg i.p., 110 min) [ng/mL] | Blood concentration, Cal. Conc. (Table S2, Study 1 mouse 4, dose given 0.36 mg i.p., 360 min) [ng/mL] | Blood concentration, Cal. Conc. (Table S2, Study 2 mouse 1, dose given 0.5 mg i.p., 11 min) [ng/mL] | Blood concentration, Cal. Conc. (Table S2, Study 2 mouse 2, dose given 0.5 mg i.p., 60 min) [ng/mL] | Blood concentration, Cal. Conc. (Table S2, Study 2 mouse 3, dose given 0.5 mg i.p., 318 min) [ng/mL] | SMILES |
| --- | --- | --- | --- | --- | --- | --- | --- | --- | --- | --- | --- | --- |
| 410 | 260 | 40 | 40 | can be achieved |  |  |  |  |  |  |  | COc1cc2ccc(=O)oc2cc1OC [Compound 39, scoparone] |
|  |  |  |  | cannot be obtained | 560 | 80 | 70 | 40 | 310 | 120 | 27 | CC(C)=CCOc1cc2ccc(=O)oc2cc1OCC=C(C)C [Compound 50, 6,7-diprenoxycoumarin] |
